From US20220409578A1, “FUNCTIONALIZED 1,3-BENZENE DIOLS AND THEIR METHOD OF USE FOR THE TREATMENT OF RADIATION DERMATITIS AND OTHER SKIN DISORDERS” (KANNALIFE SCIENCES, INC., priority 2019, published 2022)

Assays:
CXCL5 = CXCL5 chemokine secretion by UV-B irradiated NHEKs (ELISA); assay type: cell-based, human
Procedure: Normal human epidermal keratinocytes cultures were utilized to measure the release of proinflammatory cytokines and chemokines. Primary epidermal keratinocytes from neonatal donors were used from human origin and purchased from Thermo-Fisher (Cat No. A13401). […] Cells were cultured until the second passage and then acclimated for 48 hours more before UV-B irradiation. Dosing procedures and cell groups were identified using appropriate cell culture 24-well plates. The cell culture incubator was set at 5% v/v CO2 with temperature and humidity maintained at 36-38° C. and 40-70%, respectively. The test and control substances were administered to HKGS-depleted medium in triplicates. A fixed 5 μL/well from 100× stock dose volume was administered to 500 μL of media to each cell culture well on Day 3 and pre-incubated for 6 hours and then post-UVB incubated for 18 hours. […] CXCL5 levels were quantified by enzyme-linked immunosorbent assay (ELISA) after UV-B irradiation and incubation with test and control materials. CXCL5 levels were assessed from cell culture media supernatants using R&D Systems Human CXCL5/ENA-78 DuoSet ELISA kit (Cat. No. DY254-05) according to the manufacture's specifications. Absorbance was measured at 450 nm using plate reader and cytokine levels were calculated from a standard curve.

[1] = tested on: human dermal microvascular endothelial cells; assay type: cell-based; conditions: 6 h
Procedure: Dermal Microvascular endothelial cells of human origin were cultured in vitro using standard conditions (37° C., 95% v/v air, 5% v/v CO2). Human cells were selected as relevant to cell types within skin tissues for this development program. Cell culture methods are commonly used in non-clinical studies conducted on pharmaceutical products. […] Cells were cultured until the third and fourth passage and then acclimated for 24 hours before Nickel induction and dosing procedures. Cell treatment groups were identified using appropriate 96-well plates. The test and control articles were administered to medium containing 1 mM NiSO4 in triplicates. The negative control group received vehicle-only (0.1% v/v final) dose. A fixed 0.1 μL/well from 1000× stock dose volume was administered to 100 μL of media to each cell culture well on Day 2 and incubated for 6 hours at 37 degrees. These cell cultures were also utilized to determine the concentrations of test agent that were non-toxic after 24 hours of incubation. Cell Viability assays were conducted using MTS reduction assays (Promega) diluted 1:5 in DMEM+10% FBS media as specified by the manufacturer. Absorbance was measured at 490 nm using plate reader and cell viability was calculated as a percent of control. This assay was done along with all culture systems that were utilized to study cytokine release. […]

[2] = assay type: in vitro ADME, porcine
Procedure: Percutaneous absorption (Franz cell). For these studies, porcine ear skin (n=3; 1.5 in^2) obtained from Animal Technologies, Inc. (Tyler, T X) were utilized, Skins were thawed for 30 min at room temperature. After thawing, skin was placed over receptor compartment of the unjacketed Franz cell chamber with stir bar obtained from Permegear and covered with the donor compartment. The clamp was then placed to hold the cell together. The receptor compartment was filled with 12 mL of 1M PBS buffer+4% BSA and 0.1% sodium azide through the sampling port using a syringe. Franz cell was placed on a stir plate at ˜600 RPM and heated till the buffer reached 37° C. 400 μL of 3H—H2O (˜1.5 million counts) was then placed on the membrane for 5 min. […] After 30 min, 250 μL of the receptor buffer was removed in triplicate and counted to check the integrity of the skin (>0.4 μl/cm^2 was considered acceptable). […] Extraction and homogenization were performed to quantify the amount of formulation remaining in the epidermis and dermis. […] The concentration of KLS-13022 was measured by liquid chromatography coupled with tandem mass spectrometry (LC/MS/MS). […] The analytes and internal standard were detected using an Applied Biosystem API-3000 mass spectrometer equipped with a Turbo-Ion Spray (Electrospray, ESI) source that was operated in multiple reaction monitoring mode (MRM) under positive ion mode.

[3] = tested on: human 3D skin-like EPIDERM; conditions: 1 h

Structure (SMILES): C=C(C)[C@@H]1CCC(C)=C[C@H]1c1c(O)cc(CC2CN(C(=O)OCC)C2)cc1O [KLS-13022, ethyl 3-(3,5-dihydroxy-4-((1R,6R)-3-methyl-6-(prop-1-en-2-yl)cyclohex-2-enyl)benzyl)azetidine-1-carboxylate]
- CXCL5 inhibition (CXCL5): 100%
- IC50 (CXCL5; Homo sapiens, NHEK, light or radiation study, read-out: IC50 of CXCL5 inhibition): 0.05 µM
- non-toxic concentration range [1]: ≤ 12 µM
- penetration into receptor solution [2]: not into the receptor solution
- amount in epidermis/dermis (viable skin) ([2]; pig, 24 h, 1 % w/v): 0.324%
- tissue viability [3]: ≥ 50%
